In one experiment the target is T1, human Factor Xa (Homo sapiens, UniProt P00742).
T1 construct: purchased Haematologic Technologies, Vt., USA
Briefly: Factor Xa inhibition, chromogenic substrate hydrolysis, Ki app. Type of experiment: biochemical. The conditions noted are these: 2-3 nM human Factor Xa, substrate 1 mM, 50 mM Tris pH 7.5, absorbance at 405 nm, read-out: FXa Ki. As to the method: Some of the compounds of the present invention show selectivity between uPA and FXa, with respect to their inhibitory properties. The effectiveness of compounds of the present invention as inhibitors of Urokinase and Factor Xa is determined by using synthetic substrates and purified Urokinase and purified human Factor Xa respectively.
The rates of hydrolysis by the chromogenic substrates were measured both in the absence and presence of compounds of the present invention. Hydrolysis of the substrates result in the release of a chromogenic moiety, which is monitored spectrophotometrically by measuring the increase in absorbance at 405 nano meter (nm). A decrease in the rate of absorbance change at 405 nm in the presence of a inhibitor is indicative of enzyme inhibition. The results of this assay are expressed as the inhibitory constant, Ki app. Factor Xa determinations were made in 50 mM Tris buffer, pH 7.5, containing 1 M NaCl, 5 mM CaCl2, 0.05% Tween-20, and 1.5 mM EDTA. Values of Ki app. were determined by allowing 2-3 nM human Factor Xa (Haematologic Technologies, Vt., USA) to react with the substrate (1 mM) in the presence of an inhibitor. Hydrolysis of the chromogenic substrate is followed spectrophotometrically at 405 nm for five minutes. The enzyme assay routinely yielded linear progression curves under these conditions. Initial velocity measurements calculated from the progress curves by a kinetic analysis program (Batch Ki; Peter Kuzmic, BioKin, Ltd., Madison, Wis.) were used to determine Ki app.

The next experiment deals with T2, human Urokinase (Homo sapiens, UniProt P00749).
T2 construct: purchased American Diagnostica, Conn., USA
Kind of experiment: Urokinase (uPA) inhibition, chromogenic substrate hydrolysis, Ki app. Type of experiment: biochemical. Here is the method:
The effectiveness of compounds of the present invention as inhibitors of Urokinase and Factor Xa is determined by using synthetic substrates and purified Urokinase and purified human Factor Xa respectively.
The rates of hydrolysis by the chromogenic substrates were measured both in the absence and presence of compounds of the present invention. […] The results of this assay are expressed as the inhibitory constant, Ki app. Factor Xa determinations were made in 50 mM Tris buffer, pH 7.5, containing 1 M NaCl, 5 mM CaCl2, 0.05% Tween-20, and 1.5 mM EDTA. […] Initial velocity measurements calculated from the progress curves by a kinetic analysis program (Batch Ki; Peter Kuzmic, BioKin, Ltd., Madison, Wis.) were used to determine Ki app.
Urokinase inhibition determinations were made in 50 mM Tris (pH 7.5), 150 mM NaCl, 0.05% Tween-20, 0.002% antifoam, and 1 mM EDTA. human Urokinase (from American Diagnostica, Conn., USA). […] Initial velocity measurements calculated from the progress curves by a kinetic analysis program (Batch Ki; Peter Kuzmic, BioKin, Ltd., Madison, Wis.) were used to determine Ki app.

T1 sequence (P00742 235-488 limits assumed): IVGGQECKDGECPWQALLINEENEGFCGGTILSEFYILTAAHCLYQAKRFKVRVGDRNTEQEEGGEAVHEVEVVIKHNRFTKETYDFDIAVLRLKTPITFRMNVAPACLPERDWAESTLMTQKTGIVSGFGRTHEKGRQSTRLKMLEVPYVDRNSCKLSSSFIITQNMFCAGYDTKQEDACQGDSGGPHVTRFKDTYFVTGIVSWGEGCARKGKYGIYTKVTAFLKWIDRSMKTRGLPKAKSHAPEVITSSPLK
T1 sequence (P00742 41-179 partner limits assumed): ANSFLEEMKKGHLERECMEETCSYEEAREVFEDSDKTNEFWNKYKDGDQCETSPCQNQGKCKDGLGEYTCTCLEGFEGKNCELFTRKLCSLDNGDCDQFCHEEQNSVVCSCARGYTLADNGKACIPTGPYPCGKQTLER

For `Cc1cc(I)c(O)c(C(=O)Nc2ccc(C(=N)N)cc2)c1` [Ex. 1, N-(4—Carbamimidoyl-phenyl)-2-hydroxy-3-iodo-5-methyl-benzamide], the Ki on human Factor Xa came to 880 nM.

As to `CC(C)c1cc(C(=O)Nc2ccc(C(=N)N)cc2)c(O)c(C(C)C)c1` [compound 24], the Ki came to 34000 nM on human Factor Xa and 2900 nM at human Urokinase.

In the case of `Cc1cc(I)c(O)c(C(=O)Nc2ccc(NC(=N)N)nc2)c1` [Ex. 205], the Ki on human Factor Xa came to 290000 nM; on human Urokinase, 5500 nM.

Turning to `N=C(N)Nc1ccc(NC(=O)c2cc3ccccc3cc2O)cn1` [Ex. 201, 3-hydroxy-naphthalene-2-carboxylic acid (6-guanidino-pyridin-3-yl)-amide], the results for the Ki at human Factor Xa and on human Urokinase were 130000 nM and 326 nM, respectively.

Turning to `Cc1cc(Br)c(O)c(C(=O)Nc2ccc(C(=N)N)cc2)c1` [Ex. 5], the Ki at human Factor Xa was determined as 840 nM; at human Urokinase it was 290 nM.

(Values after patent US20020052343A1, “Salicylamides as serine protease inhibitors” (priority 1999, published 2002).)
